In patent US7655237B2, “Use of soluble CD14 for treatment of type 2 diabetes mellitus” (Bridge Bioresearch Limited, priority 2003, dated 2010):
Where two headings read alike, the source gives them in different places.

Experiments:
[1] = tested on: LPS; conditions: biotinylated LPS binding to sCD14-coated wells, cited from earlier work
[2] = tested on: C57BL/6J ob/ob mice; assay: treatment of insulin-resistant diabetic C57BL/6J ob/ob mice, intraperitoneal glucose tolerance test; format: in vivo
Text: The objective of this experiment was to study the effect of systemic administration of human recombinant sCD14 (rhCD14) with respect to relevant insulin resistance parameters in experimental mice (mice C57BL/6J ob/ob).
Experimental animals: Mice strains C57BL/6J ob/ob (The Jackson lab.). Males of 10 weeks old. These animals had obesity with hyperphagia, hyperinsulinemia (the presence of excess insulin in the blood), insulin resistance and moderate hyperglycemia (an excess of sugar in the blood).
Treatment of the mice with rhCD14: rhCD14 was continuously infused for 12 days by use of Alzet® pumps (pump 1002, 100 μl) implanted subcutaneously on the back of the animals. 20 mice were used. 10 with rhCD14 and 10 with saline serum (control). The dose was 1 μg/g weight of mice/day and it was administrated subcutaneously for 12 days.
Assay for glucose tolerance: Finalized the 12 days and after 16 hours of fasting, an intraperitoneal glucose tolerance test (GTT) was made. 2 g/kg of glucose (Glucosmon, 50%) were injected intraperitoneally. Blood samples were taken from the tail of the mice (20 μl) at 0, 15, 30, 60, 120 and 180 minutes after the glucose administration. The blood glucose levels were measured using a conventional glucometer (Menarini) and the insulin levels were meed by ELISA (Mercodia Ultrasensitive Mouse Insulin ELISA).

[3] = tested on: C57BL/6J mice (HF mice); assay: treatment of insulin-resistant obese C57BL/6J mice (HF mice), glucose tolerance test; format: in vivo; conditions: HF diet obese mice
Text: The objective of this experiment was to study the effect of systemic administration of human recombinant sCD14 (rhCD14) with respect to relevant insulin resistance parameters in experimental mice (C57BL/6J mice (HF mice).
Experiential animals: Male mice strains C57BL/6J (HF mice) C(he Jackson lab.). These animals had obesity.
Treatment of the mice with rhCD14: Male C57BL/6J mice were fed a HF diet (Harlan Teklad No. 88137: 21% by wt and 42% kcal from fat) for 26-28 weeks. The last 12 days, mice received a dose of 1 μg/g bw per day of hCD14 in two injections (0.5 μg/g each one) every 12 hours. The control group was treated with vehicle (saline serum) alone. Each group contained 9 mice.
Assay for Glucose Tolerance: As in Example 1.

Row | Substance | inhibition of LPS binding ([1]; concentration 1.7 μM) | inhibition of LPS binding ([1]; concentration 7 μM) | basal levels of serum glucose compared to the control group ([2]; 1 μg/g/day s.c. for 12 days) | concentrations of serum insulin ([2]; 1 μg/g/day s.c. for 12 days) | fasting blood glucose ([2]; 1 μg/g/day s.c. infusion for 12 days, 16 hours fasting, mean±SEM, control 242±30, P=0.02) | body weight, treated vs controls ([2]; 12 days treatment) | glucose curves in GTT, treated vs control (two-way ANOVA) ([2]; i.p. GTT 2 g/kg glucose, 0-180 min, P<0.02) | insulin curves in GTT, treated vs control (two-way ANOVA) ([2]; i.p. GTT, P<0.0001) | concentrations of serum insulin ([3]; 1 μg/g bw per day for 12 days) | basal levels of serum glucose compared to the control group ([3]; 1 μg/g bw per day in two injections for 12 days) | body weight, treated vs controls ([3]; 12 days treatment) | insulin curves in GTT, treated vs control (two-way ANOVA) ([3]; P<0.0001) | glucose curves in GTT, treated vs control (two-way ANOVA) ([3]; P<0.002)
1 | AELQQWLKPGLKVLSIAQAHSLNFSC (mammalian) [peptide] | 72% | 84% |  |  |  |  |  |  |  |  |  |  | 
2 | rhCD14: human recombinant soluble CD14 glycoprotein, binds bacterial lipopolysaccharide (LPS) | 84% |  | decreased | also decreased | 153 ± 14 mg/dL | did not produce significant changes | significant difference | significant difference | increased | decreased | did not produce significant changes | significant difference | significant difference
